Assay: Chemical analysis of the extract for the antibiotics (HPLC-MS / MS)
Assay type: physicochemical
Conditions: added at 0.003% each; analysed about two weeks after formation of the extract
Protocol: 10 grams of dried Lawsonia inermis leaves (www.ETSY.com) were placed in a beaker and 100 ml of distilled water were added. The mixture was stirred for 2 hours at room temperature to obtain an aqueous Lawsonia inermis extract designated as a 10% w/w or w/v extract. […] The Lawsonia inermis extract was analyzed for antibiotic activity and for the presence of the antibiotics about two weeks after formation of the extract.
A chemical analysis was performed on the extract. […] Polymyxin B analysis was performed on a Thermo Finnigan LCQ MS.

| Substance | antibiotic not detected in the extract at a level of [nanograms/ml] |
| --- | --- |
| Gentamicin [Gentamycin] | < 15.0 |
| Polymyxin B | < 960 |

From US10905729B1, “Formulations and methods for wound treatment” (Sorush, LLC, priority 2011, dated 2021)
